Assay results from patent US20120225097A1, “PIPERAZINECARBOXAMIDE DERIVATIVE USEFUL AS A MODULATOR OF FATTY ACID AMIDE HYDROLASE (FAAH)” (priority 2009, published 2012).
Where “and” joins values, the source holds several entries; their conditions need not be identical. Equal entries are not always repeated. Structures can show the parent of a compound that is named as a salt.

Assays:
[1] = test system: Langendorff isolated heart; test: Assay Method 3: Langendorff isolated heart protocol; set-up: species or system Sprague-Dawley rats; conditions: isolated rat heart; for effect on left ventricular developed pressure (LVDevP): 30 μM; for effect on left ventricular systolic pressure (LVSP): maximum concentration tested 30 μM; for hearts showing greater than 30% slowing of heart rate: perfused at 30 μM; for hearts showing greater than 30% heart rate slowing: bath concentration 26 μM
Procedure: Langendorff Isolated Heart Protocol
Male Sprague-Dawley rats (300-500 g) were anesthetized by an intraperitoneal injection of sodium pentobarbital (50 mg/kg), and then euthanized via cardiectomy. Hearts were rapidly removed, mounted on a
A ventricular drain and fluid-filled latex balloon was secured in the left ventricle with a purse string suture at the atrial appendage. Hearts were not paced. […] The hearts were maintained at approximately 37° C. while suspended in a glass chamber and bathed with Krebs-Henseleit buffer. The latex balloon in the left ventricle (LV) was expanded with water to achieve a LV end-diastolic pressure (LVEDP) of approximately 10-15 mmHg. The balloon was connected via tubing to a pressure transducer to measure LVEDP, LV […] pressure (LVDP) and LV systolic pressure (LVSP). Coronary perfusion pressure (CPP) was measured with a pressure transducer connected to a side-arm port of the aortic cannula.
Individual hearts were equilibrated for approximately 10-15 minutes. Following this equilibration period, baseline measurements were collected for approximately 15 minutes. After this period, a first heart was exposed to test compound for a total 75 min (comprising five increasing concentrations of test compound for approximately 15 minutes at each concentration) with measurements collected continuously. Test compound was dissolved in DMSO and then added directly to the experiment perfusion medium.
A one mL sample of perfusion medium was taken from the heart exudate at the end of each 15 minute monitoring period. The samples were frozen on dry ice, stored in a freezer set to maintain −80° C. until analysis. At the conclusion of the experiment, the hearts were frozen with liquid nitrogen and stored in a freezer set to maintain a temperature of −80° C. until analyzed.

rat FAAH = biological target: T1, rat FAAH (Rattus norvegicus, UniProt P97612); test: Assay Method 2: FAAH assay, anandamide hydrolysis in cell homogenate; assay type: biochemical; conditions: for IC50: average value (standard error of the mean in parenthesis), 3H-AEA 80 nM, 1 h rt
T1 construct: expressed in transfected cells
T1 sequence (P97612 1-579): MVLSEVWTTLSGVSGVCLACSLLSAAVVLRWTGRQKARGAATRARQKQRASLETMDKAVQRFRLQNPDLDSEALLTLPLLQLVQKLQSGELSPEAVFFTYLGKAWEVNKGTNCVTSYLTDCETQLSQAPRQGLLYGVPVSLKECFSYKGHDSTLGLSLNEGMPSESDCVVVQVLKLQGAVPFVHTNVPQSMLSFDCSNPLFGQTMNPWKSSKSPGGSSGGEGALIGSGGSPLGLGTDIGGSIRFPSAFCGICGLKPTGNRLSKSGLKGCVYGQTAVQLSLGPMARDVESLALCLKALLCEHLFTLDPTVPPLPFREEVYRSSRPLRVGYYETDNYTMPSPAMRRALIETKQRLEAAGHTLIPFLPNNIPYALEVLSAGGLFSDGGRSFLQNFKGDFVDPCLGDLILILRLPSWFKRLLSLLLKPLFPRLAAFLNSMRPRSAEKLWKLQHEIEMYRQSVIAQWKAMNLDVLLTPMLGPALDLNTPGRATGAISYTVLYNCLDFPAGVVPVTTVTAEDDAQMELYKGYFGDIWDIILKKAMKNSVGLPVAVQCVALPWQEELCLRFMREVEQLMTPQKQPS
Procedure: A. Transfection of Cells with Rat FAAH
A 10-cm tissue culture dish with a confluent monolayer of SK-N-MC cells was split 2 d prior to transfection. Using sterile technique, the media was removed and the cells were detached from the dish by the addition of trypsin. One fifth of the cells were then placed onto a new 10-cm dish. Cells were grown in a 37° C. incubator with 5% CO2 in Minimal Essential Media Eagle containing 10% Fetal Bovine Serum. After 2 d, cells were approximately 80% confluent. These cells were removed from the dish with trypsin and pelleted in a clinical centrifuge. The pellet was re-suspended in 400 μL complete media and transferred to an electroporation cuvette with a 0.4 cm gap between the electrodes. Supercoiled rat FAAH cDNA (1 μg), corresponding to NCBI accession NM_024132, was added to the cells and mixed. The voltage for the electroporation was set at 0.25 kV, and the capacitance was set at 960 μF. After electroporation, the cells were diluted into complete media (10 mL) and plated onto four 10-cm dishes. Because of the variability in the efficiency of electroporation, four different concentrations of cells were plated. The ratios used were 1:20, 1:10, and 1:5, with the remainder of the cells being added to the fourth dish. The cells were allowed to recover for 24 h before adding the selection media (complete media with 600 μg/mL G418). After 10 d, dishes were analyzed for surviving colonies of cells. Dishes with well-isolated colonies were used. Cells from individual colonies were isolated and tested.
T84 frozen cell pellets or transfected SK-N-MC cells (contents of 1×15 cm culture dishes) were homogenized in 50 mL of FAAH assay buffer (125 mM Tris, 1 mM EDTA, 0.2% Glycerol, 0.02% Triton X-100, 0.4 mM Hepes, pH 9). The assay mixture consisted of 50 μL of the cell homogenate, 10 μL of the test compound, and 40 μL of anandamide [1-^3H-ethanolamine] (^3H-AEA, Perkin-Elmer, 10.3 Ci/mmol), which was added last, for a final tracer concentration of 80 nM. The reaction mixture was incubated at rt for 1 h. During the incubation, 96-well Multiscreen filter plates (catalog #MAFCNOB50; Millipore, Bedford, Mass., USA) were loaded with 25 μL of activated charcoal (Multiscreen column loader, catalog #MACL09625, Millipore) and washed once with 100 μL of MeOH. Also during the incubation, 96-well DYNEX MicroLite plates (catalog #NL510410) were loaded with 100 μL of MicroScint40 (catalog #6013641, Packard Bioscience, Meriden, Conn., USA). After the 1 h incubation, 60 μL of the reaction mixture were transferred to the charcoal plates, which were then assembled on top of the DYNEX plates using Centrifuge Alignment Frames (catalog #MACF09604, Millipore). […]

SMILES | effect on left ventricular developed pressure (LVDevP) [1] | effect on left ventricular systolic pressure (LVSP) [1] | hearts showing greater than 30% slowing of heart rate [1] | IC50 (rat FAAH) [nM] | hearts showing greater than 30% heart rate slowing [1] | hearts showing greater than 30% heart rate slowing ([1]; listed as 4-[3-(4-bromophenoxy)benzyl]-N-pyridin-3-ylpiperazine-1-carboxamide bis-hydrochl) | effect on left ventricular systolic pressure (LVSP) ([1]; listed as N-pyridin-3-yl-4-{3-[4-(trifluoromethyl)phenoxy]benzyl}piperazine-1-carboxamide , bis-hydrochloride dihydrate) | effect on left ventricular systolic pressure (LVSP) ([1]; listed as N-pyridin-3-yl-4-{3-[4-(trifluoromethyl)phenoxy]benzyl}piperazine-1-carboxamide, bis-hydrochloride dihydrate) | times more potent in in vitro assays using rat FAAH enzyme (vs 4-chlorophenyl comparator) (rat FAAH; relative to 4-({3-[(4-chlorophenyl)oxy]phenyl}methyl)-N-pyridin-3-ylpiperazine-1-carboxamide)
O=C(Nc1cccnc1)N1CCN(Cc2cccc(Oc3ccc(Cl)cc3)c2)CC1 [4-({3-[(4-Chlorophenyl)oxy]phenyl}methyl)-N-pyridin-3-ylpiperazine-1-carboxamide] | near-doubling | marked increase | all hearts (n=4) and 4/4 | 65 | – | – | – | – | –
O=C(Nc1cccnc1)N1CCN(Cc2cccc(Oc3ccc(Br)cc3)c2)CC1 [4-[3-(4-Bromophenoxy)benzyl]-N-pyridin-3-ylpiperazine-1-carboxamide] | – | – | – | 22 | 3/4 | three of four | – | – | –
O=C(Nc1cccnc1)N1CCN(Cc2cccc(Oc3ccc(C(F)(F)F)cc3)c2)CC1 [Example 1, N-Pyridin-3-yl-4-{3-[4-(trifluoromethyl)phenoxy]benzyl}piperazine-1-carboxamide, bis-hydrochloride dihydrate] | decrease | – | two of five | 18 | – | – | did not induce an abrupt increase | did not | about 3.5 times
